# Values of other authors, collected in patent publication US20250042963A1, “METHODS FOR TREATING MYELOPROLIFERATIVE DISORDERS” (Acceleron Pharma Inc., priority 2015, published 2025).
# Legend:
# MF patients = details: cited from earlier work
# [1] = tested on: patients with PV that did not respond to hydroxyurea; details: cited from earlier work
# patients with MF = details: 82 evaluable patients with MF, three phase 1 and 2 trials; cited from earlier work
# myelofibrosis patients = details: cited from earlier work
# [2] = tested on: patients with a myeloproliferative disorder; details: symptomatic splenomegaly; cited from earlier work
# [3] = tested on: patients with PMF or post-PV/ET MF; details: cited from earlier work
# JAK2V617F-positive cells = details: cited from earlier work
smiles,measurement,setting,value
CCCCc1nc2cc(/C=C/C(=O)NO)ccc2n1CCN(CC)CC [pracinostat],IWG criteria anemia responses,MF patients; MF patients,approximately 10%
same,reduction in spleen size (% of patients),"MF patients; human, in vivo",27%
"CCN(CC)Cc1ccc2cc(COC(=O)Nc3ccc(C(=O)NO)cc3)ccc2c1 [Givinostat, givinostat]",complete or partial response,"[1]; randomized phase 2 trial, PV",approximately 50%
same,tolerability,[1]; the combination,generally well tolerated
Nc1cccc2c1C(=O)N(C1CCC(=O)NC1=O)C2=O (centres unmarked) [pomalidomide],anemia response according to IWG-MRT criteria,patients with MF,27%
Nc1cccc2c1CN(C1CCC(=O)NC1=O)C2=O (centres unmarked) [lenalidomide],effect on anemia,myelofibrosis patients; myelofibrosis patients with del(5q31)-associated anemia,"significant improvement, with resolution of anemia"
same,spleen responses / response rate,[2],33%
CO[C@H]1C[C@@H]2CC[C@@H](C)[C@@](O)(O2)C(=O)C(=O)N2CCCC[C@H]2C(=O)O[C@H]([C@H](C)C[C@@H]2CC[C@@H](OCCO)[C@H](OC)C2)CC(=O)[C@H](C)/C=C(\C)[C@@H](O)[C@@H](OC)C(=O)[C@H](C)C[C@H](C)/C=C/C=C/C=C/1C [everolimus],complete resolution of pruritus,[3]; 30 evaluable patients,80%
same,complete resolution of systemic symptoms,[3]; 30 evaluable patients,69%
same,"response rate, European Myelofibrosis Network criteria",[3]; in vivo,60%
same,"response rate, International Working Group for Myelofibrosis Research and Treatment criteria",[3]; in vivo,23%
same,proliferation of JAK2V617F-positive cells,JAK2V617F-positive cells,decreased
O=C1CCC(N2C(=O)c3ccccc3C2=O)C(=O)N1 (centres unmarked) [thalidomide],tolerability,"myelofibrosis patients; myelofibrosis patients, peripheral neuropathies, constipation, somnolence",poorly tolerated
same,spleen responses / response rate,[2],< 20%
